Values of other authors in patent US7446098B2, “Combination therapy for treating protein deficiencies” (Mount Sinai School of Medicine of New York University, priority 2003, dated 2008).
Numbering of substitutions follows the chain as printed.

Experiments:
[1] = target: T1, mutant (R301Q) α-Gal A (Homo sapiens, UniProt P06280, R301Q); details: oral administration; transgenic mice overexpressing mutant (R301Q) α-Gal A; cited from earlier work
T1 construct: expressed in transfected cells; host or cells: transgenic mice (major organs)
T1 sequence (P06280 32-429 R301Q): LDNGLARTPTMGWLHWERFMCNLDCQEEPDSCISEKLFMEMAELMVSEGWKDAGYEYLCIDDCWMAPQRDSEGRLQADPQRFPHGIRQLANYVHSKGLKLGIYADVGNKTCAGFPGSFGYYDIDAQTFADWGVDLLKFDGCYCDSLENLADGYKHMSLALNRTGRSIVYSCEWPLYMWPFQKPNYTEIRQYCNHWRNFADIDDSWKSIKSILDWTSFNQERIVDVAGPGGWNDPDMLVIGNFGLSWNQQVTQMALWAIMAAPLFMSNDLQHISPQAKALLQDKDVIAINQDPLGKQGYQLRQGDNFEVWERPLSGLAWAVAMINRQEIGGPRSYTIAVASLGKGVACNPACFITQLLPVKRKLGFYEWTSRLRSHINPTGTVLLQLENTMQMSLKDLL

[2] = test system: mutant α-Gal A (R301Q or Q279E); details: lymphoblasts from Fabry patients with R301Q or Q279E mutations; cited from earlier work
[3] = target: T2, mutant α-Gal A (R301Q) (Homo sapiens, UniProt P06280, R301Q); details: neutral pH; cited from earlier work
T2 sequence (P06280 32-429 R301Q): T1 sequence (P06280 32-429 R301Q)

[4] = target: T3, wild-type α-Gal A (Homo sapiens, UniProt P06280); details: transfected COS-7 cells; cited from earlier work
T3 construct: expressed in transfected cells; host or cells: COS-7
T3 sequence (P06280 32-429): T1 sequence (P06280 32-429 R301Q) with Q270R

OC[C@H]1NC[C@H](O)[C@@H](O)[C@H]1O [DGJ, 1-deoxygalactonojirimycin]
enzyme activity in major organs [1]: substantially elevated
mutant enzyme activity in lymphoblasts [2]: enhanced
in vitro stability of mutant α-Gal A (R301Q) [3]: effectively increased
activity of wild-type α-Gal A [4]: able to increase
amount of wild-type α-Gal A [4]: able to increase
